Like-named read-outs stand apart in the source and are kept apart here.
How the values were obtained:
Type in all cases: in vivo
Chilo suppressalis = experiment: Insecticidal activity against Chilo suppressalis, sprayed Oryza sativa seedlings/stalks; conditions: for Lethality rate (%, 3 days after the treatment) 1 mg/L / Lethality rate (%, 3 days after the treatment) 10 mg/L / Lethality rate (%, 3 days after the treatment) 0.5 mg/L: parallel comparison test, Table 6; for pest or weed control at 1 µg/mL / pest or weed control at 0.25 µg/mL / pest or weed control at 0.5 µg/mL: Chilo suppressalis, 72 h, 3 days after the treatment, 3rd instar larvae, read-out: lethality rate against Chilo suppressalis; for pest or weed control at 1 µg/mL: dose 1 mg/L; for pest or weed control at 0.25 µg/mL: dose 0.25 mg/L; for pest or weed control at 0.5 µg/mL: dose 0.5 mg/L
Procedure: (§1) After being dissolved in a mixed solvent of acetone/methanol (1:1), the test compound was diluted with water containing 0.1% (wt) Tween 80 to the desired concentration.
(§2) With Leucania separata, Plutella xylostella, and Chilo suppressalis as targets, airbrush spray method was used for the determination of the insecticidal activity.
Determination method: 1) Preparation of Oryza sativa seedlings: Oryza sativa was cultivated in a constant temperature room (a temperature of 26-28V, a relative humidity of about 60-80%, and a light illumination of 16 hL:8 hD) in a small plastic cup with a diameter of 4.5 cm and a height of 4 cm, and when the Oryza sativa grew up to the 4-5 leaf stage, robust and consistent Oryza sativa seedlings were selected for chemical treatment, and 3 repetitions were performed for each treatment. 2) Preparation for test insects: Chilo suppressalis at 3rd instar larvae were raised continuously indoors. 3) The Oryza sativa stems were sprayed and insects were introduced. Spraying was performed uniformly on the whole plant of the Oryza sativa seedlings, with 15 ml of compound solution for each treatment. The blank control was treated first, and then the above operations were repeated in the order of the test concentration from low to high. After the Oryza sativa seedlings were sprayed, they were placed in a cool place to dry the liquid, and about 5 cm of stalks at the base of the stems were cut and fed to the test insects. A glass petri dish with a diameter of 90 mm was placed with filter paper at the bottom of the dish, and then was moisturized by adding water. After that, about 5 rice stalks and 10 larvae were placed in each dish, and the petri dish was sealed with a non-woven fabric and placed in a constant temperature room for cultivation. The number of remaining live insects was investigated 3 days after the treatment.

Plutella xylostella = experiment: Insecticidal activity against Plutella xylostella, airbrush spray on cabbage leaf discs; conditions: foliar, 72 h; for pest or weed control at 5 µg/mL: 5 mg/L, Table 5, read-out: Lethality rate (%, 3 days after the treatment) 5 mg/L
Procedure: as §1, §2
(§3) Determination method: Cabbage leaves were punched into leaf discs with a diameter of 2 cm with a puncher, and Airbrush spray treatment was carried out at a pressure of 10 psi (approximately 0.7 kg/cm^2) on the front and back sides of each leaf disc, with a spray volume of the compound to be tested of 0.5 ml. After drying in the shade, 10 of 3rd instar larvae were introduced for each treatment, and each treatment was repeated 3 times for. After the treatment, it was placed in an observation room at 25° C. and a relative humidity of 60-70%, and 3 days after the treatment, the number of surviving insects was investigated, and the mortality rate was calculated.

Leucania separata = experiment: Insecticidal activity against Leucania separata, airbrush spray on corn leaf sections; conditions: Mythimna separata, 72 h; dose 0.05 mg/L, 3 days after the treatment, 3rd instar larvae; read-out: lethality rate against Leucania separata
Procedure: as §1, §2
as §3, with “Corn” for “Cabbage”, “cut” for “punched”, “into” for “into leaf discs with a diameter of”, “leaf sections,” for “with a puncher,”, “section,” for “disc,”, “times.” for “times for.”

[1] = 1 mg/L, parallel comparison test, Table 5, read-out: Lethality rate (%, 3 days after the treatment) 1 mg/L
[2] = 0.5 mg/L, parallel comparison test, Table 5, read-out: Lethality rate (%, 3 days after the treatment) 0.5 mg/L
[3] = 0.05 mg/L, parallel comparison test, Table 5, read-out: Lethality rate (%, 3 days after the treatment) 0.05 mg/L
[4] = dose 1 mg/L, 3 days after the treatment, 3rd instar larvae, read-out: lethality rate against Plutella xylostella
[5] = dose 0.05 mg/L, 3 days after the treatment, 3rd instar larvae, read-out: lethality rate against Plutella xylostella
[6] = dose 0.5 mg/L, 3 days after the treatment, 3rd instar larvae, read-out: lethality rate against Plutella xylostella

| Compound | pest or weed control at 1 µg/mL (Plutella xylostella; [1]) [%] | pest or weed control at 5 µg/mL (Plutella xylostella; parallel comparison test) [%] | pest or weed control at 0.5 µg/mL (Plutella xylostella; [2]) [%] | pest or weed control at 0.05 µg/mL (Plutella xylostella; [3]) [%] | pest or weed control at 1 µg/mL (Chilo suppressalis) [%] | pest or weed control at 1 µg/mL (Plutella xylostella; [4]) [%] | pest or weed control at 0.05 µg/mL (Leucania separata) [%] | further results |
| --- | --- | --- | --- | --- | --- | --- | --- | --- |
| N#CCCN(C(=O)c1cnccn1)c1cccc(C(=O)Nc2c(Br)cc(C(F)(C(F)(F)F)C(F)(F)F)cc2Br)c1F [CK1, reference compound] | 0 | 66.7 |  |  |  |  |  | Lethality rate (%, 3 days after the treatment) 1 mg/L (Chilo suppressalis): 0%; Lethality rate (%, 3 days after the treatment) 10 mg/L (Chilo suppressalis): 13.33% |
| N#CCCN(C(=O)c1ccc(Cl)nc1)c1cccc(C(=O)Nc2c(Br)cc(C(F)(C(F)(F)F)C(F)(F)F)cc2Br)c1F [Compound 1-1] | 50 | 93.3 | 6.67 |  |  |  |  |  |
| N#CCCN(C(=O)c1cccnc1)c1cccc(C(=O)Nc2c(Br)cc(C(F)(C(F)(F)F)C(F)(F)F)cc2Br)c1F [Compound 1-2] | 30 | 90 | 0 |  |  |  |  | Lethality rate (%, 3 days after the treatment) 1 mg/L (Chilo suppressalis): 0%; Lethality rate (%, 3 days after the treatment) 10 mg/L (Chilo suppressalis): 0% |
| N#CCCN(C(=O)c1ccncc1)c1cccc(C(=O)Nc2c(Br)cc(C(F)(C(F)(F)F)C(F)(F)F)cc2Br)c1F [Compound 1-3] | 76.7 | 100 | 13.3 | 0 |  |  |  |  |
| N#CCCN(C(=O)c1ccccn1)c1cccc(C(=O)Nc2c(Br)cc(C(F)(C(F)(F)F)C(F)(F)F)cc2Br)c1F [Compound 1-4] | 10 | 60 |  |  |  |  |  |  |
| N#CCCN(C(=O)c1ccc(F)cn1)c1cccc(C(=O)Nc2c(Br)cc(C(F)(C(F)(F)F)C(F)(F)F)cc2Br)c1F [Compound 1-5] | 60 | 83.3 | 33.3 | 0 |  |  |  |  |
| N#CCCN(C(=O)c1cnc(F)cn1)c1cccc(C(=O)Nc2c(Br)cc(C(F)(C(F)(F)F)C(F)(F)F)cc2Br)c1F [Compound 1-6] | 60 | 100 | 16.7 | 0 |  |  |  |  |
| N#CCCN(C(=O)c1cnc(F)nc1)c1cccc(C(=O)Nc2c(Br)cc(C(F)(C(F)(F)F)C(F)(F)F)cc2Br)c1F [Compound 1-7] | 73.3 | 100 | 20 | 0 |  |  |  |  |
| N#CCN(C(=O)c1ccc(F)nc1)c1cccc(C(=O)Nc2c(Br)cc(C(F)(C(F)(F)F)C(F)(F)F)cc2Br)c1F [Compound 1] |  |  |  |  | ≥ 90 | ≥ 90 | ≥ 90 |  |
| N#CCCN(C(=O)c1cccnc1)c1cccc(C(=O)Nc2c(Br)cc(C(F)(C(F)(F)F)C(F)(F)F)cc2C(F)(F)F)c1F [Compound 2-1] | 60 | 100 | 20 | 0 |  |  |  |  |
| N#CCCN(C(=O)c1ccncc1)c1cccc(C(=O)Nc2c(Br)cc(C(F)(C(F)(F)F)C(F)(F)F)cc2C(F)(F)F)c1F [Compound 2-2] | 93.3 | 100 | 30 | 0 |  |  |  |  |
| N#CCCN(C(=O)c1ccccn1)c1cccc(C(=O)Nc2c(Br)cc(C(F)(C(F)(F)F)C(F)(F)F)cc2C(F)(F)F)c1F [Compound 2-3] | 40 | 100 | 10 | 0 |  |  |  |  |
| N#CCCN(C(=O)c1ccc(F)cn1)c1cccc(C(=O)Nc2c(Br)cc(C(F)(C(F)(F)F)C(F)(F)F)cc2C(F)(F)F)c1F [Compound 2-4] | 90 | 100 | 63.3 | 33.3 |  |  |  |  |
| N#CCCN(C(=O)c1cnccn1)c1cccc(C(=O)Nc2c(Br)cc(C(F)(C(F)(F)F)C(F)(F)F)cc2C(F)(F)F)c1F [Compound 2-5] | 50 | 100 | 23.3 | 0 |  |  |  | Lethality rate (%, 3 days after the treatment) 0.5 mg/L (Chilo suppressalis): 0%; Lethality rate (%, 3 days after the treatment) 1 mg/L (Chilo suppressalis): 23.33%; Lethality rate (%, 3 days after the treatment) 10 mg/L (Chilo suppressalis): 70% |
| N#CCCN(C(=O)c1cnc(F)cn1)c1cccc(C(=O)Nc2c(Br)cc(C(F)(C(F)(F)F)C(F)(F)F)cc2C(F)(F)F)c1F [Compound 2-6] | 90 | 100 | 60 | 20 |  |  |  |  |
| N#CCCN(C(=O)c1cnc(F)nc1)c1cccc(C(=O)Nc2c(Br)cc(C(F)(C(F)(F)F)C(F)(F)F)cc2C(F)(F)F)c1F [Compound 2-7] | 96.7 | 100 | 53.3 | 0 |  |  |  |  |
| N#CCCN(C(=O)c1ccc(F)nc1)c1cccc(C(=O)Nc2c(Br)cc(C(F)(C(F)(F)F)C(F)(F)F)cc2Br)c1F [Compound 2] | 100 | 100 | 86.7 | 43.3 | ≥ 90 | ≥ 90 | ≥ 90 | Lethality rate (%, 3 days after the treatment) 0.5 mg/L (Chilo suppressalis): 86.67%; Lethality rate (%, 3 days after the treatment) 1 mg/L (Chilo suppressalis): 100%; Lethality rate (%, 3 days after the treatment) 10 mg/L (Chilo suppressalis): 100% |
| N#CCCCN(C(=O)c1ccc(F)nc1)c1cccc(C(=O)Nc2c(Br)cc(C(F)(C(F)(F)F)C(F)(F)F)cc2Br)c1F [Compound 3] |  |  |  |  | ≥ 90 | ≥ 90 | ≥ 90 |  |
| N#CCCCCN(C(=O)c1ccc(F)nc1)c1cccc(C(=O)Nc2c(Br)cc(C(F)(C(F)(F)F)C(F)(F)F)cc2Br)c1F [Compound 4] |  |  |  |  | ≥ 90 | ≥ 90 | ≥ 90 |  |
| N#CCN(C(=O)c1ccc(F)nc1)c1cccc(C(=O)Nc2c(Br)cc(C(F)(C(F)(F)F)C(F)(F)F)cc2I)c1F [Compound 5] |  |  |  |  | ≥ 90 | ≥ 90 | ≥ 90 |  |
| N#CCCN(C(=O)c1ccc(F)nc1)c1cccc(C(=O)Nc2c(Br)cc(C(F)(C(F)(F)F)C(F)(F)F)cc2I)c1F [Compound 6] |  |  |  |  | ≥ 90 | ≥ 90 | ≥ 90 |  |
| N#CCN(C(=O)c1ccc(F)nc1)c1cccc(C(=O)Nc2c(Br)cc(C(F)(C(F)(F)F)C(F)(F)F)cc2C(F)(F)F)c1F [Compound 9] |  |  |  |  | ≥ 90 | ≥ 90 | ≥ 90 | pest or weed control at 0.25 µg/mL (Chilo suppressalis): ≥ 90%; pest or weed control at 0.5 µg/mL (Chilo suppressalis): ≥ 90%; pest or weed control at 0.05 µg/mL (Plutella xylostella; [5]): ≥ 90%; pest or weed control at 0.5 µg/mL (Plutella xylostella; [6]): ≥ 90% |
| N#CCCN(C(=O)c1ccc(F)nc1)c1cccc(C(=O)Nc2c(Br)cc(C(F)(C(F)(F)F)C(F)(F)F)cc2C(F)(F)F)c1F [Compound 10] | 100 | 100 | 100 | 100 | ≥ 90 | ≥ 90 | ≥ 90 | Lethality rate (%, 3 days after the treatment) 0.5 mg/L (Chilo suppressalis): 100%; Lethality rate (%, 3 days after the treatment) 1 mg/L (Chilo suppressalis): 100%; Lethality rate (%, 3 days after the treatment) 10 mg/L (Chilo suppressalis): 100%; pest or weed control at 0.25 µg/mL (Chilo suppressalis): ≥ 90%; pest or weed control at 0.5 µg/mL (Chilo suppressalis): ≥ 90%; pest or weed control at 0.05 µg/mL (Plutella xylostella; [5]): ≥ 90%; pest or weed control at 0.5 µg/mL (Plutella xylostella; [6]): ≥ 90% |

From US12454510B2, “Isophthalamide compound and use thereof” (METISA BIOTECHNOLOGY CO., LTD, priority 2019, dated 2025)
